The subject of data set [1] is Cryptococcus neoformans. Nature of the data set: microbe, parasite or virus in culture. Format: functional, organism-based. The note with it: H99, 72 h.
Description: Anti-cryptococcal activity against Cryptococcus neoformans H99 assessed as inhibition of fungal growth incubated for 72 hrs by microdilution method
Data set [2] relates to Cryptococcus neoformans. The experiment in a line: Anti-cryptococcal activity against Cryptococcus neoformans H99 assessed as inhibition of fungal growth at 1 to 8 ug/ml incubated upto 72 hrs by time-growth curve assay. The data set is classed as functional, organism-based. The note with it: dose 1-8 µg/ml.
The test system of data set [3] is Cryptococcus neoformans. The experiment in a line: Inhibition of biofilm formation in Cryptococcus neoformans H99 at 8 ug/ml incubated for 24 hrs by XTT reduction assay. Format: functional. Background: Tetrazolium dyes change colour on reduction, which living cells bring about.
The test system of data set [4] is [Candida] auris. Nature of the data set: microbe, parasite or virus in culture. The data set is classed as functional, organism-based. The note with it: Candidozyma auris, 0030, 48 h.
Description: Antifungal activity against Candida auris 0030 assessed as inhibition of fungal growth incubated for 48 hrs by microdilution method
Data set [5] has as its system Candida albicans. Nature of the data set: microbe, parasite or virus in culture. The note with it: SC5314, 48 h. Format: functional, organism-based.
Description: Antifungal activity against Candida albicans SC5314 assessed as inhibition of fungal growth incubated for 48 hrs by microdilution method
Data set [6] relates to Candida albicans. Nature of the data set: microbe, parasite or virus in culture. The data set is classed as functional, organism-based. The note with it: Candida albicans, 904, 48 h.
Description: Antifungal activity against Candida albicans 904 assessed as inhibition of fungal growth incubated for 48 hrs by microdilution method
The subject of data set [7] is Candida albicans. Nature of the data set: microbe, parasite or virus in culture. The data set is classed as functional, organism-based. The note with it: Candida albicans, 0304103, 48 h.
Description: Antifungal activity against Candida albicans 0304103 assessed as inhibition of fungal growth incubated for 48 hrs by microdilution method
The subject of data set [8] is Candida tropicalis. Nature of the data set: microbe, parasite or virus in culture. Format: functional, organism-based. The note with it: Candida tropicalis, 10186, 48 h.
Description: Antifungal activity against Candida tropicalis 10186 assessed as inhibition of fungal growth incubated for 48 hrs by microdilution method
Data set [9] relates to Nakaseomyces glabratus. The experiment in a line: microbe, parasite or virus in culture. Format: functional, organism-based. The note with it: Nakaseomyces glabratus, 9073, 48 h.
Description: Antifungal activity against Candida glabrata 9073 assessed as inhibition of fungal growth incubated for 48 hrs by microdilution method
For data set [10], the system named is Nakaseomyces glabratus. Nature of the data set: microbe, parasite or virus in culture. Format: functional, organism-based. The note with it: Nakaseomyces glabratus, 9025, 48 h.
Description: Antifungal activity against Candida glabrata 9025 assessed as inhibition of fungal growth incubated for 48 hrs by microdilution method
Data set [11] relates to Pichia kudriavzevii. Nature of the data set: microbe, parasite or virus in culture. The note with it: Pichia kudriavzevii, 10153, 48 h. The data set is classed as functional, organism-based.
Description: Antifungal activity against Candida krusei 10153 assessed as inhibition of fungal growth incubated for 48 hrs by microdilution method
The subject of data set [12] is [Candida] auris. The experiment in a line: microbe, parasite or virus in culture. The data set is classed as functional, organism-based. The note with it: Candidozyma auris, 0029, 48 h.
Description: Antifungal activity against Candida auris 0029 assessed as inhibition of fungal growth incubated for 48 hrs by microdilution method
For data set [13], the system named is [Candida] auris. Nature of the data set: Antifungal activity against Candida auris 15448 assessed as inhibition of fungal growth incubated for 48 hrs by microdilution method. Format: functional, organism-based. The note with it: Candidozyma auris, 15448, 48 h. On the technique in general: Broth dilution looks for growth in wells or tubes with falling amounts of substance.

The test system of data set [14] is Aspergillus fumigatus. The experiment in a line: microbe, parasite or virus in culture. Format: functional, organism-based. The note with it: Aspergillus fumigatus, 7544, 48 h.
Description: Antifungal activity against Aspergillus fumigatus 7544 assessed as inhibition of fungal growth incubated for 48 hrs by microdilution method
Data set [15] relates to Aspergillus fumigatus. The experiment in a line: microbe, parasite or virus in culture. Format: functional, organism-based. The note with it: 023-2, 48 h.
Description: Antifungal activity against Aspergillus fumigatus 023-2 assessed as inhibition of fungal growth incubated for 48 hrs by microdilution method
For data set [16], the system named is Cryptococcus neoformans. Nature of the data set: Inhibition of Cryptococcus neoformans H99 delta5,6-desaturase assessed as upregulation of ERG1 gene expression at 2 ug/ml incubated for 24 hrs by RT-PCR analysis. The note with it: dose 2.0 µg/ml.
The test system of data set [17] is Cryptococcus neoformans. The experiment in a line: Inhibition of Cryptococcus neoformans H99 delta5,6-desaturase assessed as upregulation of ERG2 gene expression at 2 ug/ml incubated for 24 hrs by RT-PCR analysis. The note with it: dose 2.0 µg/ml.
Data set [18] has as its system Cryptococcus neoformans. Nature of the data set: Inhibition of Cryptococcus neoformans H99 delta5,6-desaturase assessed as upregulation of ERG3 gene expression at 2 ug/ml incubated for 24 hrs by RT-PCR analysis. The note with it: dose 2.0 µg/ml.
For data set [19], the system named is Cryptococcus neoformans. Nature of the data set: Inhibition of Cryptococcus neoformans H99 delta5,6-desaturase assessed as upregulation of ERG4 gene expression at 2 ug/ml incubated for 24 hrs by RT-PCR analysis. The note with it: dose 2.0 µg/ml.
Data set [20] has as its system Cryptococcus neoformans. The experiment in a line: Inhibition of Cryptococcus neoformans H99 delta5,6-desaturase assessed as upregulation of ERG5 gene expression at 2 ug/ml incubated for 24 hrs by RT-PCR analysis. The note with it: dose 2.0 µg/ml.
Data set [21] deals with Cryptococcus neoformans. Nature of the data set: Inhibition of Cryptococcus neoformans H99 delta5,6-desaturase assessed as upregulation of ERG11 gene expression at 2 ug/ml incubated for 24 hrs by RT-PCR analysis. The note with it: dose 2.0 µg/ml.
The test system of data set [22] is Cryptococcus neoformans. The experiment in a line: Inhibition of Cryptococcus neoformans H99 delta5,6-desaturase assessed as upregulation of ERG24 gene expression at 2 ug/ml incubated for 24 hrs by RT-PCR analysis. The note with it: dose 2.0 µg/ml.
Data set [23] is described as follows: microbe, parasite or virus in culture. The data set is classed as functional. The note with it: Cryptococcus; time 72 hrs.
Description: Anti-cryptococcal activity against Cryptococcus assessed as inhibition of fungal growth incubated for 72 hrs by microdilution method
Data set [24] deals with Cryptococcus neoformans. The experiment in a line: Fungicidal activity against Cryptococcus neoformans H99 assessed as fungal growth inhibition incubated upto 72 hrs by time-fungicidal curve assay. The data set is classed as functional.
The nature of data set [25]: Metabolic stability in mouse liver microsomes assessed as half life. Format: ADME, Microsome. For orientation: Liver microsomes are vesicles of endoplasmic reticulum, rich in cytochrome P450 enzymes.
A short description of data set [26]: Metabolic stability in mouse liver microsomes assessed as clearance. The data set is classed as ADME, Microsome.
A short description of data set [27]: […] in ICR mouse model of Cryptococcal meningitis infected with Cryptococcus neoformans H99 assessed as median survival time at 15 mg/kg, IG administered daily (reference value: 11 day). The note with it: in vivo, po, 264 h. Format: organism-based.
The subject of data set [28] is Cryptococcus neoformans. Nature of the data set: Anti-cryptococcal activity against Cryptococcus neoformans H99 assessed as inhibition of fungal growth at 4 to 8 ug/ml measured for 3 to 48 hrs by time-growth curve assay. Format: functional, organism-based. The note with it: dose 4-8 µg/ml, time 3-48 hrs.
Data set [29] concerns Cryptococcus neoformans. The experiment in a line: Inhibition of biofilm formation in Cryptococcus neoformans H99 at 2 ug/ml incubated for 24 hrs by XTT reduction assay. The data set is classed as functional.
The test system of data set [30] is Cryptococcus neoformans. The experiment in a line: Inhibition of biofilm formation in Cryptococcus neoformans H99 at 0.5 to 8 ug/ml incubated for 24 hrs by XTT reduction assay. The data set is classed as functional, organism-based. The note with it: dose 0.5-8 µg/ml, DDE = dose-dependent effect.

In brackets after ≈: the same amount, converted by molar mass. Activity calls are given as the source filed them. The calls are words filed in the database; no cut-off is given here.

The values that follow come from ChEMBL document CHEMBL5154781, “Discovery of Novel Sertraline Derivatives as Potent Anti-Cryptococcus Agents” (J Med Chem, 2022).

Usually IC50 stands for the concentration that inhibits the measured activity by half. A word on the inhibition: it is the change of the read-out against control, counted positive when it falls. A word on the MFC: it is the lowest tested concentration that kills the fungus rather than only halting it. What is called half-life is how long it takes for the measured level to halve.

As to `Cl.Clc1ccc(C2CCC(NCCC3CCCCC3)c3ccsc32)cc1` (stereo not given), the IC50 in data set [1] is 64 µg/mL.

For the compound `Cl.Clc1ccc(C2CCC(NCc3ccccc3)c3ccsc32)cc1Cl` (stereo not given), the IC50 in [1] came to 32 µg/mL.

`Nc1nc(=O)[nH]cc1F` [FLUCYTOSINE] gave an IC50 in data set [1] of 2 µg/mL (≈ 15.5 µM).

In the case of `Cl.Clc1ccc(C2CCC(NC3CC3)c3ccsc32)cc1Cl` (stereo not given), 16 µg/mL corresponded to half-maximal inhibition in [1] (IC50).

`CN1CCC(CCNC2CCC(c3ccc(Cl)c(Cl)c3)c3sccc32)CC1.Cl` (stereo not given) came in with an IC50 in [1] of 2 µg/mL.

`Cl.Clc1ccc(C2CCC(NC3CCOCC3)c3ccsc32)cc1Cl` (stereo not given): inhibition in data set [1] was half-maximal at 4 µg/mL (IC50).

Regarding `OC(Cn1cncn1)(Cn1cncn1)c1ccc(F)cc1F` [FLUCONAZOLE], the result in data set [2], in [16], in [17], in [18], in data set [19] and in [20] was Active. The outcome in data set [21] and in data set [22] was Active. Besides, 8 µg/mL produced 50% inhibition in data set [3]. Besides, the IC50 was greater than 64 µg/mL in data set [4]; 2 µg/mL (≈ 6.53 µM) in data set [1]; 0.25 µg/mL (≈ 0.816 µM) in data set [5]; greater than 64 µg/mL in [6]; greater than 64 µg/mL in data set [7]; greater than 64 µg/mL in data set [8]. In addition, the IC50 in data set [9] was 64 µg/mL (≈ 209 µM); in data set [10] it was 16 µg/mL (≈ 52.2 µM); in data set [11], 64 µg/mL (≈ 209 µM); in data set [12] it was greater than 64 µg/mL; in [13], 4 µg/mL (≈ 13.1 µM); in data set [14], greater than 64 µg/mL. Further, the IC50 in data set [15] was greater than 64 µg/mL. Also, in [23], the MIC50 came to 1.14 µg/mL (≈ 3.72 µM).

In data set [1], `CC(C)(C)CNC1CCC(c2ccc(Cl)c(Cl)c2)c2sccc21.Cl` (stereo not given) gave an IC50 of 4 µg/mL.

Take `CNC1CC(c2ccc(Cl)c(Cl)c2)c2ccccc21.Cl` (stereo not given): the midpoint of inhibition in data set [1], the IC50, lay at 16 µg/mL.

As for `Cl.O=C(CNC1CCC(c2ccc(Cl)c(Cl)c2)c2sccc21)N1CCCCC1` (stereo not given), the IC50 in [1] came out at 8 µg/mL.

Regarding `Cl.Clc1ccc(C2CCC(NC3CCCCC3)c3ccsc32)cc1Cl` (stereo not given), in data set [1], the IC50 came to 8 µg/mL.

In turn, `Cc1ccc(C2CCC(NCCC3CCCCC3)c3ccsc32)cc1C.Cl` (stereo not given) registered an IC50 in data set [1] of 32 µg/mL.

With `C[C@@H]1[C@H](O)[C@@H](C)/C=C/C=C/C=C/C=C/C=C/C=C/C=C/[C@H](O[C@@H]2O[C@H](C)[C@@H](O)[C@H](N)[C@@H]2O)C[C@@H]2O[C@](O)(C[C@@H](O)C[C@@H](O)[C@H](O)CC[C@@H](O)C[C@@H](O)CC(=O)O[C@H]1C)C[C@H](O)[C@H]2C(=O)O` [AMPHOTERICIN B], in data set [24], the MFC was 4 µg/mL (≈ 4.33 µM). This compound also yielded an IC50 in [1] of 0.25 µg/mL (≈ 0.271 µM). Also, in data set [23], the MIC50 turned out to be 0.13 µg/mL (≈ 0.141 µM).

For `O=C(c1ccc(F)cc1)C1CCN(CCn2c(=O)[nH]c3ccccc3c2=O)CC1` [KETANSERIN], in data set [25], the half-life was 20.1 min. The CLH in data set [26] worked out at 271 µL/min/mg.

Consider `CN[C@H]1CC[C@@H](c2ccc(Cl)c(Cl)c2)c2ccccc21` [SERTRALINE], for which the half-life in [25] worked out at 41.5 min. In data set [26], the CLH was 132 µL/min/mg. Moreover, in [27], the MST was 11.5 days.

As to `Cl.Clc1ccc(C2CCC(NCCCC3CCCCC3)c3ccsc32)cc1Cl` (stereo not given), half-maximal inhibition in [1] (IC50) was put at 2 µg/mL.

In turn, `Cl.Clc1ccc(C2CCC(NCC3CCCCC3)c3ccsc32)cc1Cl` (stereo not given) displayed an IC50 in [1] of 2 µg/mL.

With `CC(C)NC1CCC(c2ccc(Cl)c(Cl)c2)c2sccc21.Cl` (stereo not given), in data set [1], the half-inhibitory concentration (IC50) was 16 µg/mL.

As for `CN(C)C1CCC(c2ccc(Cl)c(Cl)c2)c2sccc21.Cl` (stereo not given), the IC50 in data set [1] was found to be 32 µg/mL.

As to `Cl.Clc1ccc(C2CCC(NC3CCCC3)c3ccsc32)cc1Cl` (stereo not given), inhibition in data set [1] was half-maximal at 8 µg/mL (IC50).

Take `Cl.Clc1ccc(C2CCC(NCc3ncccn3)c3ccsc32)cc1Cl` (stereo not given): inhibition in data set [1] was half-maximal at 32 µg/mL (IC50).

With `Cl.Clc1ccc(C2CCC(NCc3ccncc3)c3ccsc32)cc1Cl` (stereo not given), the IC50 in data set [1] came to 16 µg/mL.

Consider `Cl.Clc1ccc(C2CCC(NCCC3CCCCC3)c3ccsc32)cc1Cl` (stereo not given), for which the result in data set [28] was Active. The compound further returned an inhibition at 2 µg/mL in [29] of 50%. In data set [1], this compound registered an IC50 of 1 µg/mL. The inhibition result in data set [30] is “Dde”.

In turn, `Cl.Clc1ccc(C2CCC(NCCC3CCCCC3)c3ccsc32)c(Cl)c1` (stereo not given) had an IC50 in [1] of 4 µg/mL.

Compound `CNC1CCC(c2ccc(Cl)c(Cl)c2)c2sccc21.Cl` (stereo not given) had an IC50 in data set [1] of 8 µg/mL.
